According to patent US20110136730A1, “"Method for screening compounds comprising the use of picornavirus protease 2A"” (priority 2008, published 2011):

Test system: WT FMDV StopGo expressing construct in HEK-293 cells
Type: cell-based, human

| Molecule | effect on the Renilla/firefly ratio of the WT StopGo expressing construct |
| --- | --- |
| COc1ccc(C[C@H]2NC[C@H](O)[C@H]2OC(C)=O)cc1 [anisomycin] | do not affect StopGo |
| CC[C@H]1OC(=O)[C@H](C)[C@@H](O[C@H]2C[C@@](C)(OC)[C@@H](O)[C@H](C)O2)[C@H](C)[C@@H](O[C@@H]2O[C@H](C)C[C@H](N(C)C)[C@H]2O)[C@](C)(O)C[C@@H](C)CN(C)[C@H](C)[C@@H](O)[C@]1(C)O [azithromycin] | do not affect StopGo |
| CC[C@H]1OC(=O)[C@H](C)[C@@H](O[C@H]2C[C@@](C)(OC)[C@@H](O)[C@H](C)O2)[C@H](C)[C@@H](O[C@@H]2O[C@H](C)C[C@H](N(C)C)[C@H]2O)[C@](C)(OC)C[C@@H](C)C(=O)[C@H](C)[C@@H](O)[C@]1(C)O [clarithromycin] | do not affect StopGo |
| CCC[C@@H]1C[C@@H](C(=O)N[C@@H]([C@H]2O[C@H](SC)[C@H](O)[C@@H](O)[C@H]2O)[C@H](C)Cl)N(C)C1 [clindomygin] | do not affect StopGo |
| C[C@H]1O[C@H](O[C@H]2[C@H](O)[C@@H](O)[C@@H](O)[C@H](O)[C@@H]2O)[C@@H](N)C[C@@H]1NC(=N)C(=O)O [kasugamycin] | do not affect StopGo |
| CCC[C@@H]1C[C@@H](C(=O)N[C@@H]([C@H]2O[C@H](SC)[C@H](O)[C@@H](O)[C@H]2O)[C@@H](C)O)N(C)C1 [lincomycin] | do not affect StopGo |
| C=C[C@]1(C)C[C@@H](OC(=O)CSCCN(CC)CC)[C@]2(C)[C@H](C)CC[C@]3(CCC(=O)[C@H]32)[C@@H](C)[C@@H]1O [tiamulin] | do not affect StopGo |
| CO[C@H]1C[C@H](O[C@H]2[C@H](C)[C@@H](O[C@@H]3O[C@H](C)C[C@H](N(C)C)[C@H]3OC(C)=O)[C@@H](C)C[C@@]3(CO3)C(=O)[C@H](C)[C@@H](OC(C)=O)[C@@H](C)[C@@H](C)OC(=O)[C@@H]2C)O[C@@H](C)[C@@H]1OC(C)=O [troleandomycin] | do not affect StopGo |
| CC[C@H]1OC(=O)C[C@@H](O)[C@H](C)[C@@H](O[C@@H]2O[C@H](C)[C@@H](O[C@H]3C[C@@](C)(O)[C@@H](O)[C@H](C)O3)[C@H](N(C)C)[C@H]2O)[C@@H](CC=O)C[C@@H](C)C(=O)/C=C/C(C)=C/[C@@H]1CO[C@@H]1O[C@H](C)[C@@H](O)[C@@H](OC)[C@H]1OC [tylosin] | do not affect StopGo |
| C=C[C@]1(C)C[C@@H](OC(=O)CSC(C)(C)CNC(=O)[C@H](N)C(C)C)[C@]2(C)[C@H](C)CC[C@]3(CCC(=O)[C@H]32)[C@@H](C)[C@@H]1O [valnemulin] | do not affect StopGo |
| capromycin | do not affect StopGo |
| gentamycin | do not affect StopGo |
